Data taken from patent publication US12590099B2, “Inhibitors of histone deacetylase useful for the treatment or prevention of HIV infection” (Merck Sharp & Dohme LLC, priority 2018, dated 2026).
Like-named read-outs stand apart in the source and are kept apart here.

Columns and labels:
Type in all cases: biochemical
Recombinant human HDAC2 = biological target: T1, Recombinant human HDAC2 (Homo sapiens, UniProt Q92769); test: Human HDAC enzyme inhibitor Fluor-de-Lys assay, HDAC2
T1 construct: Full length human HDAC2-FLAG was expressed in baculovirus infected Sf9 cells; FLAG (C); made in house; host or cells: Sf9 (baculovirus)
T1 sequence (Q92769 whole entry): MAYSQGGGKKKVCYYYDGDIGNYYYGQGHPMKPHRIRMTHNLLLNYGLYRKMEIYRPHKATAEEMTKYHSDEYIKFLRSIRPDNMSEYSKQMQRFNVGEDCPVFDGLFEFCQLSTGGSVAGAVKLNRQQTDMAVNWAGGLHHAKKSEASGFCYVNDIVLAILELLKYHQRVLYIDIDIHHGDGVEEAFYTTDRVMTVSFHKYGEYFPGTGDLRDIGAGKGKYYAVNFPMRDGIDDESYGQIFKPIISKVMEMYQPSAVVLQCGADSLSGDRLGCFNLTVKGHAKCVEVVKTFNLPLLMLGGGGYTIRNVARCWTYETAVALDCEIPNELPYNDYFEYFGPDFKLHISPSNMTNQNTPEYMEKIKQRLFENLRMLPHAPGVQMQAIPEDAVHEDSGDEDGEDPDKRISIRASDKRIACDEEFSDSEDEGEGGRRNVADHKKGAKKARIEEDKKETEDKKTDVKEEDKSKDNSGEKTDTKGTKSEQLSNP
Method in brief: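 Fluor-de-Lys format at room temperature (23° C.): compounds titrated 10-point, 1:3, preincubated with HDAC before substrate addition. Developer with excess HDAC inhibitor ends the reaction, and trypsin-liberated AMC fluorescence is the read-out.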

HDAC6 = biological target: T2, HDAC6 (Homo sapiens, UniProt Q9UBN7); test: Human HDAC enzyme inhibitor Fluor-de-Lys assay, HDAC6
T2 sequence (Q9UBN7 1-1215): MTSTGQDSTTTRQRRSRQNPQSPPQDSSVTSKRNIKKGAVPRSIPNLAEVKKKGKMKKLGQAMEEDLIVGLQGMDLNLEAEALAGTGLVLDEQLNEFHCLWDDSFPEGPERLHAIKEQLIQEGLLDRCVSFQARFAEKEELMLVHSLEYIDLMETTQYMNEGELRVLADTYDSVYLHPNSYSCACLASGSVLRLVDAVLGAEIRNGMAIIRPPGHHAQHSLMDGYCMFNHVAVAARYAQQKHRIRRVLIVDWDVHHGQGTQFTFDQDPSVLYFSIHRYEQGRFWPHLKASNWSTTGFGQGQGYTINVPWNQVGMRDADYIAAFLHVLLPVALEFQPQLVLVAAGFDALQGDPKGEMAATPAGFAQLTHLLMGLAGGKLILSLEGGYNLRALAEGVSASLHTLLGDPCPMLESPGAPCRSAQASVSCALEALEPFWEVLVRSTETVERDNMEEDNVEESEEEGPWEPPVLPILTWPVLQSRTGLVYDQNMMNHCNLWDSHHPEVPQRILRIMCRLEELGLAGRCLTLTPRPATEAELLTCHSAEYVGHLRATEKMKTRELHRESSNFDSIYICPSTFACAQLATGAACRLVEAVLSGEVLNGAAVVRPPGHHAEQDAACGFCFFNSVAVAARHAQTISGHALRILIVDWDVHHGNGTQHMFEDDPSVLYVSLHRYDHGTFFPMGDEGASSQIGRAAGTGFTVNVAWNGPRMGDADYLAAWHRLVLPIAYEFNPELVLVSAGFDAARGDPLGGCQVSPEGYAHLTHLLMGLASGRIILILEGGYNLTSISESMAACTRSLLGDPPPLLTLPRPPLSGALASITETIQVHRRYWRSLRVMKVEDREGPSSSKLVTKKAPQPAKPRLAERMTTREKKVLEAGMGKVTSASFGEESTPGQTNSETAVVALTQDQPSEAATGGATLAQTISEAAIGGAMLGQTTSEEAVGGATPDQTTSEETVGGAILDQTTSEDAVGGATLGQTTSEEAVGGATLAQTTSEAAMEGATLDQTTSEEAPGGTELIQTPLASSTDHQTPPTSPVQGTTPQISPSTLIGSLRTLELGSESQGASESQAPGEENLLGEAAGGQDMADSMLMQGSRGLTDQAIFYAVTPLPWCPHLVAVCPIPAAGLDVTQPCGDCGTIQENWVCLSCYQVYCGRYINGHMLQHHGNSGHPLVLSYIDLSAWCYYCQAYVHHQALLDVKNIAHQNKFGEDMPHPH

Recombinant human HDAC8 = biological target: T3, Recombinant human HDAC8 (Homo sapiens, UniProt Q9BY41); test: Human HDAC enzyme inhibitor Fluor-de-Lys assay, HDAC8
T3 construct: purchased Enzo Life Sciences BML-SE145-0100
T3 sequence (Q9BY41 1-377): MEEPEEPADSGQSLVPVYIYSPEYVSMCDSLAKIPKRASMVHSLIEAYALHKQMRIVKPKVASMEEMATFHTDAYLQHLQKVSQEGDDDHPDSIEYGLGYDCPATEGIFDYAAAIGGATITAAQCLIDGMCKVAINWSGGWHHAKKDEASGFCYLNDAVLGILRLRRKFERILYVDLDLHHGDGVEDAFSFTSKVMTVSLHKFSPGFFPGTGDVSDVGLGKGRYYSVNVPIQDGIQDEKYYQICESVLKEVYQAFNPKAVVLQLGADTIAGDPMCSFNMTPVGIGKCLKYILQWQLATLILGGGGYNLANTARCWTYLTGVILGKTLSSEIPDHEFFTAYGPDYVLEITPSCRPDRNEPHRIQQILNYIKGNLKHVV

[1] = biological target: T4, Recombinant human HDAC3/SMRT heterodimer (Homo sapiens, UniProt O15379); test: Human HDAC enzyme inhibitor Fluor-de-Lys assay, HDAC3/SMRT
T4 construct: FLAG (C); made in house
T4 sequence (O15379 whole entry): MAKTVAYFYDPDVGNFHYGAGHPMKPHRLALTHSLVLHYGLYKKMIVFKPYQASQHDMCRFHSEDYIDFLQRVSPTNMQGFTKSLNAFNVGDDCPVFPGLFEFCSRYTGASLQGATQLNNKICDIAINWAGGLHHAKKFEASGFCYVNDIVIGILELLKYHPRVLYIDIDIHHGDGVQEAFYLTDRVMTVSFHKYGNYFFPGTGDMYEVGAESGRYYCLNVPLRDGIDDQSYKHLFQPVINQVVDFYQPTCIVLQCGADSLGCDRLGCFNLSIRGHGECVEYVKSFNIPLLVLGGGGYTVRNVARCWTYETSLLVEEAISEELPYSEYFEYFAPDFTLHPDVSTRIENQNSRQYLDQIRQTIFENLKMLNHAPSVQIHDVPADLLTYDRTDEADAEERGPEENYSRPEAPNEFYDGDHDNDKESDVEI
T4 sequence (Q9Y618 1-899 partner limits assumed): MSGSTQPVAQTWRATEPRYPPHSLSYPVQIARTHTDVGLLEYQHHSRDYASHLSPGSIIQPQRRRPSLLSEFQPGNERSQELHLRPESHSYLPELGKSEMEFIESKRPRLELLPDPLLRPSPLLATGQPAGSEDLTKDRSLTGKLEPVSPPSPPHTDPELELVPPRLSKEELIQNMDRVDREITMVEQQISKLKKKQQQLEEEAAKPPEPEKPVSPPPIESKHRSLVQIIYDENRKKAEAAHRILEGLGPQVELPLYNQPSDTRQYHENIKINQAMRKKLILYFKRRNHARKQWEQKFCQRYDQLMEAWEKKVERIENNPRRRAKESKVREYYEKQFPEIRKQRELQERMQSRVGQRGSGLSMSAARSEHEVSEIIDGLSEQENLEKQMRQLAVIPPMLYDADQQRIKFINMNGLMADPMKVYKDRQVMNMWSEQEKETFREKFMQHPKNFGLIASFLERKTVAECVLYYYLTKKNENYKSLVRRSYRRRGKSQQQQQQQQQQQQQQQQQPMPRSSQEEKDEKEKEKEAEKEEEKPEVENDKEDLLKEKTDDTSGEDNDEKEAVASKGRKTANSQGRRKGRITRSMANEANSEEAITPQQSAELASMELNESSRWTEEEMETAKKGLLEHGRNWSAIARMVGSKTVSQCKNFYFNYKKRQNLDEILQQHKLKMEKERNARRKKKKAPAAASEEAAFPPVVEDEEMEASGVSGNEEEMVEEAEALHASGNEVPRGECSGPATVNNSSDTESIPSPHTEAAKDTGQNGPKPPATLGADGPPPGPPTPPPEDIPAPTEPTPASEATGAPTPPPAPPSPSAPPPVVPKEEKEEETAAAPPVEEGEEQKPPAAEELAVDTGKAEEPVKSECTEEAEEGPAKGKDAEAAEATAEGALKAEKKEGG

[2] = recombinant human HDAC2, Fluor-de-Lys assay
[3] = recombinant human HDAC8, Fluor-de-Lys assay
[4] = recombinant human HDAC3/SMRT, Fluor-de-Lys assay

SMILES | IC50 (Recombinant human HDAC2) | IC50 (HDAC6) | IC50 (Recombinant human HDAC8) | IC50 [1] | IC50 (Recombinant human HDAC2; [2]) | IC50 (HDAC6; HDAC6, Fluor-de-Lys assay) | IC50 (Recombinant human HDAC8; [3]) | IC50 [1, 4]
CCC(=O)CCCCC[C@H](NC(=O)[C@H]1CC12CCN(CC)CC2)c1ncc(-c2ccc(-c3ncco3)cc2)o1 [Compound 94] | 34 nM | 2300 nM | 44200 nM | 4.01 nM |  |  |  | 
CCC(=O)CCCCC[C@H](NC(=O)[C@H]1CC12CCN(C)CC2)c1ncc(-c2ccc3nc(C(F)(F)F)ccc3c2)o1 [Compound 78, (1S)-6-methyl-N-[(1S)-7-oxo-1-{5-[2-(trifluoromethyl)quinolin-6-yl]-1,3-oxazol-2-yl}nonyl]-6-azaspiro[2.5]octane-1-carboxamide] | 62.3 nM | 33500 nM | > 45000 nM | 13.8 nM |  |  |  | 
CCC(=O)CCCCC[C@H](NC(=O)C1NC(=O)CC12CN(C)C2)c1ncc(-c2cc3ccccc3nc2OC)[nH]1 (some centres unmarked) [Compound 317] |  |  |  |  | 5 nM | 186 nM | 4890 nM | 0.84 nM
CCC(=O)CCCCC[C@H](NC(=O)CC1CC2(C1)CN(C)C2)c1nnc(-c2cc3ccccc3nc2OC)o1 [Compound 308] |  |  |  |  | 97.7 nM | 1280 nM | > 45000 nM | 27.4 nM
CCC(=O)CCCCC[C@H](NC(=O)C1CC12CCNCC2)c1nnc(-c2cc3ccccc3nc2OC)o1 (some centres unmarked) [Compound 303] |  |  |  |  | 40.5 nM | 982 nM | 29200 nM | 10.5 nM
CCC(=O)CCCCC[C@H](NC(=O)CC1CC2(CNC2)C1)c1nnc(-c2cc3ccccc3nc2OC)o1 [Compound 301] |  |  |  |  | 77.6 nM | 3480 nM | 29500 nM | 15.8 nM
CCC(=O)CCCCC[C@H](N)c1ncc(-c2cc3ccc(=O)n(C)c3cc2OC)o1 [Compound 224] |  |  |  |  | 444 nM | > 900 nM | > 900 nM | 92.1 nM
CCC(=O)CCCCC[C@H](NC(=O)C1=NOC2(CCN(C)CC2)C1)c1ncc(-c2cc3cccnc3cc2OC)o1 [Compound 223] |  |  |  |  | 9.7 nM | 237 nM | > 900 nM | 2.06 nM
CCC(=O)CCCCC[C@H](NC(=O)C1=NOC2(CCN(CC3CC3)CC2)C1)c1ncc(-c2cc3ccc(C)nc3cc2F)[nH]1 [Compound 234] |  |  |  |  | 14.1 nM | > 900 nM | > 900 nM | 2.99 nM
CN1CCC2(CC1)C[C@@H]2C(=O)N[C@@H](CCCCCC(=O)CC1CC1)c1ncc(-c2ccc(F)cc2)[nH]1 [Compound 84] | 63.8 nM | 3780 nM | 14300 nM | 16.3 nM |  |  |  | 
CCC(=O)CCCCC[C@H](NC(=O)[C@H]1CC12CCN(C)CC2)c1ncc(-c2ccc(F)cc2)[nH]1 [Compound 280] |  |  |  |  | 122 nM | 11100 nM | 10800 nM | 10.6 nM
CCC(=O)CCCCC[C@H](NC(=O)C1=NOC2(CCN(C)CC2)C1)c1ncc(-c2cc3ccc(C)nc3cc2F)[nH]1 [Compound 232] |  |  |  |  | 21.4 nM | > 900 nM | > 900 nM | 4.47 nM
CCC(=O)CCCCC[C@H](NC(=O)C1=NOC2(CCN(C)CC2)C1)c1ncc(-c2ccc(-c3cccnc3)cc2OC)o1 [Compound 222, N-{(1S)-1-[5-(2-methoxy-4-pyridin-3-ylphenyl)-1,3-oxazol-2-yl]-7-oxononyl}-8-methyl-1-oxa-2,8-diazaspiro[4.5]dec-2-ene-3-carboxamide] |  |  |  |  | 24.5 nM | > 900 nM | > 900 nM | 4.67 nM
CCC(=O)CCCCC[C@H](NC(=O)CC1CC2(C1)CN(C(C)=O)C2)c1ncc(-c2ccccc2)[nH]1 [Compound 300, (S)-2-(2-acetyl-2-azaspiro[3.3]heptan-6-yl)-N-(7-oxo-1-(5-phenyl-1H-imidazol-2-yl)nonyl)acetamide] |  |  |  |  | 802 nM | 23200 nM | 11100 nM | 38.7 nM
CCC(=O)CCCCC[C@@H](NC(=O)C1CCC2(CC1)CNC2)c1ncc(-c2ccccc2)[nH]1 [Compound 298] |  |  |  |  | 144 nM | 5070 nM | 1690 nM | 10.4 nM
CCC(=O)CCCCC[C@H](NC(=O)[C@H]1CC12CCN(CC1CC1)CC2)c1ncc(-c2cc3ccn(C)c(=O)c3cc2OC)o1 [Compound 229] |  |  |  |  | 0.7 nM | 451 nM | > 900 nM | 0.21 nM
CCC(=O)CCCCC[C@H](NC(=O)C1CC12CC1CCC(C2)N1C)c1ncc(-c2ccc3ncccc3c2)[nH]1 (single isomer, unassigned) [Compound 242] |  |  |  |  | 16.1 nM | 133 nM | 5100 nM | < 1.5 nM
CCC(=O)CCCCC[C@H](NC(=O)CC1CC2(C1)CN(C)C2)c1ncc(-c2ccccc2)[nH]1 [Compound 307] |  |  |  |  | 617 nM | 12100 nM | 13500 nM | 16.9 nM
CCC(=O)CCCCC[C@H](NC(=O)C1CC12CCN(CC)CC2)c1nc(-c2ccc(F)cc2)[nH]c1-c1cccs1 (some centres unmarked) [Compound 252] |  |  |  |  | 185 nM | 33900 nM | 29600 nM | 66.1 nM
CCC(=O)CCCCC[C@H](NC(=O)[C@H]1CC12CCN(C)CC2)c1ncc(-c2ccc3cc(C#N)ccc3c2)[nH]1 [Compound 90] | 1.6 nM | 1010 nM | 2640 nM | 0.38 nM |  |  |  | 
CCC(=O)CCCCC[C@H](NC(=O)[C@H]1CC12CCN(C)CC2)c1[nH]c(-c2ccc(F)cc2)nc1Cl [Compound 91] | 14.2 nM | 27500 nM | 31900 nM | 3.26 nM |  |  |  | 
CCC(=O)CCCCC[C@H](NC(=O)[C@H]1CC12CCN(C)CC2)c1[nH]c(-c2ccc(F)cc2)nc1Cl [Compound 240] |  |  |  |  | 38.1 nM | 38400 nM | 26700 nM | 2.95 nM
CCC(=O)CCCCC[C@H](NC(=O)C1CC12CCN(CC)CC2)c1nc(-c2ccc(F)cc2)[nH]c1-c1cnc(OC)nc1 (some centres unmarked) [Compound 247] |  |  |  |  | 214 nM | > 45000 nM | 21800 nM | 35.9 nM
